Source: ChEMBL document CHEMBL5252526, “Small Molecule Kinase Inhibitors for the Treatment of Brain Cancer” (J Med Chem, 2016)
Blank lines part the entries; values can stand above or below the molecule they belong to.

What was measured:
[1] = Ratio of drug concentration in brain to plasma in rat; assay type: ADME, cell-free; details: brain and plasma, read-out: BPR
[2] = Ratio of drug concentration in brain to plasma in mouse; assay type: ADME, cell-free; details: brain and plasma, read-out: BPR
[3] = Ratio of drug concentration in brain to plasma in mouse assessed as unbound fraction; assay type: ADME, cell-free; details: brain and plasma, read-out: K(p,uu,brain)
[4] = Ratio of drug concentration in CSF to plasma in mouse assessed as unbound fraction; assay type: ADME, tissue-based; details: CSF and plasma
[5] = Ratio of AUC (0 to 24 hrs) in brain to plasma in mouse; assay type: ADME, cell-free; details: brain and plasma, read-out: Ratio AUC
[6] = Ratio of AUC in brain to plasma in rat at 25 mg/kg, po; assay type: ADME, organism-based; details: brain and plasma, read-out: Ratio AUC
[7] = Ratio of AUC in brain to plasma in rat at 75 mg/kg, po; assay type: ADME, organism-based; details: brain and plasma, read-out: Ratio AUC
[8] = Ratio of drug concentration in brain to plasma in mouse at 75 mg/kg, po; assay type: ADME, organism-based; details: brain and plasma, read-out: BPR
[9] = Ratio of drug concentration in brain to plasma in rat at 3.5 mg/kg, iv; assay type: ADME, organism-based; details: brain and plasma, read-out: BPR

Compound: Cc1ccc(C(=O)Nc2ccc(CN3CCN(C)CC3)c(C(F)(F)F)c2)cc1C#Cc1cnc2cccnn12 [PONATINIB]
Kp [2]: 1.6

Compound: COc1cc2ncnc(Nc3ccc(F)c(Cl)c3)c2cc1OCCCN1CCOCC1 [GEFITINIB]
Kp uu [3]: 0.02
Kp uu [4]: 0.09

Compound: CC[C@H](CO)Nc1nc(NCc2ccccc2)c2ncn(C(C)C)c2n1 [SELICICLIB]
Kp [6]: 0.3

Compound: CC(C)(O)CC(=O)NCCn1ccc2ncnc(Nc3ccc(Oc4cccc(C(F)(F)F)c4)c(Cl)c3)c21 [TAK-285]
Kp [7]: 0.24

Compound: Cc1cc(Nc2ncnc3ccc(NC4=NC(C)(C)CO4)cc23)ccc1Oc1ccn2ncnc2c1 [TUCATINIB]
Kp [8]: 0.5

Compound: CN[C@@H]1C[C@H]2O[C@@](C)([C@@H]1OC)n1c3ccccc3c3c4c(c5c6ccccc6n2c5c31)C(=O)N[C@H]4O [UCN-01]
Kp [9]: 0.5

Next, values leading:

Kp [1]: 0.4
Compound: COc1cc(Nc2c(C#N)cnc3cc(OCCCN4CCN(C)CC4)c(OC)cc23)c(Cl)cc1Cl [BOSUTINIB]

Kp uu [3]: 0.2
Compound: CCN1CCN(Cc2ccc(Nc3ncc(F)c(-c4cc(F)c5nc(C)n(C(C)C)c5c4)n3)nc2)CC1 [ABEMACICLIB]

Kp [5]: 0.72
Compound: COc1cc(N2CCC(N3CCN(C)CC3)CC2)ccc1Nc1ncnc(Nc2ccccc2S(=O)(=O)C(C)C)n1 [ASP-3026]

Kp [2]: 0.2
Compound: COc1cc2c(Oc3ccc(NC(=O)C4(C(=O)Nc5ccc(F)cc5)CC4)cc3F)ccnc2cc1OCCCN1CCOCC1 [FORETINIB]
